Test results as given in ChEMBL document CHEMBL1133658 (J Med Chem, 2000).
pIC50: −log10 of the molar value.

Biological target: T1, Tubulin alpha chain (Sus scrofa, UniProt P02550)
T1 sequence (P02550 whole entry, looked up): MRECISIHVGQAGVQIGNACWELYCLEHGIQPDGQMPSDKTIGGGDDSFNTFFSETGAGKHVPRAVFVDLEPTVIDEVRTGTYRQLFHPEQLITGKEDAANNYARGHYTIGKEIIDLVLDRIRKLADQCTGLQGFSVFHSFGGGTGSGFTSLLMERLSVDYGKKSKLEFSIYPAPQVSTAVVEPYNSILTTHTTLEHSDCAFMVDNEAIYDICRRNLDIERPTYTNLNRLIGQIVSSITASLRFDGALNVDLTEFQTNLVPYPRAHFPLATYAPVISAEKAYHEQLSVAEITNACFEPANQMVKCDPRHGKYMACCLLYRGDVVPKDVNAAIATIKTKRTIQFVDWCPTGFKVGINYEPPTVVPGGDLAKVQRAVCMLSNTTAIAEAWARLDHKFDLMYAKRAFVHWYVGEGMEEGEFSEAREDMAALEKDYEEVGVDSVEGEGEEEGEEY

SMILES	pIC50
Oc1cc(-c2cccs2)nc2cc3c(cc12)OCO3	5.66
COc1cccc([C@H]2CC(=O)c3cc4c(cc3N2)OCO4)c1	5.63
COc1cccc([C@@H]2CC(=O)c3cc4c(cc3N2)OCO4)c1	6.16
COc1cccc(-c2cc(O)c3ccccc3n2)c1	5.85
COc1cccc(-c2cc(O)c3cccnc3n2)c1	6.02
COc1cc2c(c(OC)c1O)-c1ccc(SC)c(=O)cc1[C@@H](NC(C)=O)CC2	5.82
COc1cccc(-c2cc(O)c3cc4c(cc3n2)OCO4)c1	6.24
COc1cc2c(c(OC)c1OC)-c1ccc(SC)c(=O)cc1[C@@H](NCc1ccc([N+](=O)[O-])cc1)CC2	5.64
COc1ccc(CN[C@H]2CCc3cc(OC)c(OC)c(OC)c3-c3ccc(SC)c(=O)cc32)c(OC)c1OC	5.64
COc1cc2c(c(OC)c1OC)-c1ccc(SC)c(=O)cc1[C@@H](COC(=O)c1ccccc1F)C2	5.44
COc1cc2c(c(OC)c1OC)-c1ccc(SC)c(=O)cc1[C@@H](OC(=O)C13CCC(C)(C(=O)O1)C3(C)C)CC2 (some centres not stated)	5.85
COc1cccc(-c2cc(O)c3ccc(C)nc3n2)c1	6.12
Cc1cc(C)c2c(O)cc(-c3cccc(F)c3)nc2n1	6.13
COc1c(O)cc2c(c1OC)-c1ccc(SC)c(=O)cc1[C@@H](NC(=O)CC(C)=O)CC2	5.77
COc1cc2c(c(OC)c1OC)-c1ccc(SC)cc1[C@@H](O)C=C2	5.74
Cc1ccc2c(O)cc(-c3sccc3C)nc2n1	5.55
Oc1cc(-c2ccc3ccccc3c2)nc2ncccc12	4.85
COc1cccc(-c2cc(O)c3cc(C)cnc3n2)c1	6.10
COc1ccccc1-c1cc(O)c2cc(C)cnc2n1	4.74
Oc1cccc(-c2cc(O)c3cc4c(cc3n2)OCO4)c1	6.33
COc1cc2c(c(OC)c1OC)-c1ccc(SC)c(=O)cc1[C@@H](NC(=O)CC(C)=O)CC2	5.85
COc1cc2c(c(OC)c1OC)-c1ccc(SC)cc1[C@H](OC(=O)c1cccnc1)CC2	5.62
Nc1cccc(-c2cc(O)c3cc4c(cc3n2)OCO4)c1	6.14

SMILES	pIC50
CCCC(=O)O[C@H]1CCc2cc(OC)c(OC)c(OC)c2-c2ccc(SC)cc21	5.55
Cc1cccc(-c2cc(O)c3cccnc3n2)c1	5.48
CCCC(=O)O[C@@H]1CCc2cc(OC)c(OC)c(OC)c2-c2ccc(SC)cc21	5.32
COc1ccc2c(c1)CCCc1cc(OC)c(OC)c(OC)c1-2	5.72
COc1ccc2c(c1)C=CCc1cc(OC)c(OC)c(OC)c1-2	5.66
COc1cc2c(c(OC)c1OC)-c1ccc(SC)c(=O)cc1[C@@H](NC(=O)C13CCC(C)(C(=O)O1)C3(C)C)CC2 (some centres not stated)	5.62
COc1cc2c(c(OC)c1OC)-c1ccc(SC)cc1[C@@H](OC(=O)c1cccnc1)CC2	5.32
COc1cccc(-c2cc(O)c3cc(N(C)C)ccc3n2)c1	6.42
COc1cc2c(c(OC)c1OC)-c1ccc(SC)c(=O)cc1[C@@H](NCc1ccc(F)cc1)CC2	5.49
Cc1ccc2c(O)cc(-c3cc(C)sc3C)nc2n1	5.32
COc1cc2c(c(OC)c1OC)-c1ccc(SC)c(=O)cc1[C@@H](NCc1ccc(C#N)cc1)CC2	5.60
Oc1cc(-c2cccc3ccccc23)nc2ncccc12	5.96
COc1cc2c(c(OC)c1OC)-c1ccc(SC)c(=O)cc1[C@@H](COC(=O)c1cccc(F)c1)C2	5.47
Cc1cccc(-c2cc(O)c3ccc(C)nc3n2)c1	5.72
Oc1cc(-c2cccc(Cl)c2)nc2ncccc12	5.82
COc1cccc(-c2cc(O)c3c(Cl)ccnc3n2)c1	6.14
Cc1ccc2c(O)cc(-c3ccsc3)nc2n1	5.10
Cc1ccnc2nc(-c3ccc4ccccc4c3)cc(O)c12	5.74
COc1c(O)cc2c(c1OC)-c1ccc(SC)c(=O)cc1[C@@H](NC(C)=O)CC2C=O (some centres not stated)	5.55
COc1ccc2c(c1)CC=Cc1cc(OC)c(OC)c(OC)c1-2	5.82
COc1cccc(-c2cc(O)c3c(C)cc(C)nc3n2)c1	6.06
Cc1ccnc2nc(-c3ccc(F)cc3)cc(O)c12	4.74
COc1cc2c(c(OC)c1OC)-c1ccc(SC)cc1[C@@H](OC(C)=O)CC2	5.55

SMILES	pIC50
Oc1cc(-c2ccc3ccccc3c2)nc2ncc(Cl)cc12	5.60
COc1cc2c(c(OC)c1OC)-c1ccc(SC)cc1[C@H](OC(C)=O)CC2	5.51
Cc1ccc2c(O)cc(-c3cccs3)nc2n1	5.22
COc1cccc(-c2cc(O)c3c(Br)ccnc3n2)c1	5.82
Cc1ccc2c(O)cc(-c3ccc4ccccc4c3)nc2n1	5.29
Oc1cc(-c2cccc(F)c2)nc2cc3c(cc12)OCO3	6.28
Cc1ccc2c(O)cc(-c3ccc(Cl)cc3)nc2n1	4.96
Cc1cccc(-c2cc(O)c3cc(C)cnc3n2)c1	5.82
Cc1cnc2nc(-c3ccc(Cl)cc3)cc(O)c2c1	5.70
Cc1ccc(-c2cc(O)c3c(C)ccnc3n2)cc1	5.54
Cc1ccc(-c2cc(O)c3c(C)cc(C)nc3n2)cc1	5.00
Cc1ccc(-c2cc(O)c3cc(C)cnc3n2)cc1	5.62
COc1ccc(-c2cc(O)c3cc(C)cnc3n2)cc1	5.11
COc1ccc(-c2cc(O)c3c(C)ccnc3n2)cc1	5.06
Cc1ccc(-c2cc(O)c3ccc(C)nc3n2)cc1	5.31
Cc1cnc2nc(-c3sccc3C)cc(O)c2c1	5.42
COc1cc2c(c(OC)c1OC)-c1ccc(SC)c(=O)cc1[C@@H](OC(=O)c1cccnc1)CC2	6.12
CNc1cccc(-c2cc(O)c3cc4c(cc3n2)OCO4)c1	6.19
Cc1ccc2c(O)cc(-c3ccc(Br)s3)nc2n1	5.82
COc1cc2c(c(OC)c1O)-c1ccc(SC)c(=O)cc1[C@@H](NC(=O)CC(C)=O)CC2	5.48
Cc1cnc2nc(-c3cccc(Cl)c3)cc(O)c2c1	6.14
Cc1cc(C)c2c(O)cc(-c3cccc4ccccc34)nc2n1	6.11
COc1cc2c(c(OC)c1OC)-c1ccc(SC)c(=O)cc1[C@@H](OC(=O)c1ccncc1)CC2	6.25

SMILES	pIC50
O=C(Oc1cccc(-c2cc(O)c3cc4c(cc3n2)OCO4)c1)c1ccccc1	6.35
Oc1cc(-c2cccc(C(F)(F)F)c2)nc2cc3c(cc12)OCO3	6.09
Cc1ccc2c(O)cc(-c3ccc(Cl)s3)nc2n1	5.77
Cc1cnc2nc(-c3cccc4ccccc34)cc(O)c2c1	6.26
Oc1cc(-c2cccc(Cl)c2)nc2cc3c(cc12)OCO3	6.43
COc1cccc(-c2cc(O)c3cc(N4CCOCC4)ccc3n2)c1	6.44
Cc1cnc2nc(-c3ccc4ccccc4c3)cc(O)c2c1	5.68
Cc1ccc2c(O)cc(-c3ccc(C)s3)nc2n1	5.77
Cc1cnc2nc(-c3ccc(C)s3)cc(O)c2c1	5.57
Cc1ccc2c(O)cc(-c3cccc(Cl)c3)nc2n1	6.05
Cc1cc(C)c2c(O)cc(-c3cccc(Cl)c3)nc2n1	6.11
Oc1cc(-c2ccccc2F)nc2ccc(N3CCCC3)cc12	6.34
Oc1cc(-c2ccc(F)cc2)nc2ncc(Cl)cc12	4.80
COc1cc2c(c(OC)c1OC)-c1ccc(SC)c(=O)cc1[C@@H](COC(=O)c1ccc(F)cc1)C2	5.35
Cc1ccc2c(=O)cc(-c3cccc(F)c3)[nH]c2n1	6.28
Cc1ccnc2nc(-c3cccc4ccccc34)cc(O)c12	6.03
COc1cc2c(c(OC)c1OC)-c1ccc(SC)cc1[C@H](OC(=O)c1ccccc1)CC2	5.57
Cc1ccc2c(O)cc(-c3cccc4ccccc34)nc2n1	6.18
COC(=O)c1ccc2c(c1)C(NC(C)=O)CCc1cc(OC)c(OC)c(OC)c1-2 (configuration not stated)	5.85
Cc1ccnc2nc(-c3ccc(Cl)cc3)cc(O)c12	5.32
COc1ccc2c(c1)C(NC(C)=O)CCc1cc(OC)c(OC)c(OC)c1-2 (configuration not stated)	5.82
COc1cc2c(c(OC)c1OC)-c1ccc(SC)c(=O)cc1[C@@H](COC(=O)c1cccc(C#N)c1)C2	5.52

Biological target: T1, Tubulin alpha chain
Experiment: Inhibition of tubulin polymerization interacting at the colchicine binding site

SMILES	pIC50
Cc1cnc2nc(-c3cccc(F)c3)cc(O)c2c1	6.20
